The test system of one experiment is MDAMB468.1. Kind of experiment: Cell Titer Glo (CTG) proliferation assay, MDA-MB-468. In kind it is cell-based. The conditions noted are these: Homo sapiens, MDA-MB-468; MDAMB468.1 cells, 72.0 hrs.; read-out: AVE CTG Proliferation MDAMB468.1 72.0 hrs. Here is the method:
(§1) Seed cells in 40 μL of cell culture media into each well of 384-well cell culture plate, spin them at room temperature at 1,000 RPM for 1 minute and then transfer the plates into 37° C. 5% CO2 incubator overnight. Next day, treat cells with 40 nL of diluted compound and return to incubator. After compound treatment for 3 days, Add 30 μL of CellTiter-Glo reagent (Promega) into each well to be detected. Then place the plates at room temperature for 30 min followed by reading on EnVision. Inhibition activity calculated as % DMSO=100×(LumSample-Lum low control)/(Lum high control-Lum low control) where high control is from cells treated with 0.1% DMSO and Low control obtained from PBS only. Use XLFit (equation 201) to calculate IC50 (A+ ((B−A)/(1[…]((x/C)^D)))) where A: Bottom, B: Top, C: IC50, D: Slope.
For orientation: ATP-based viability assays read luminescence as a measure of living cells.
`CCc1cccc(-c2cnc(C(=O)N3CCC(CN4CCN(CC(=O)NCCNC[C@@H](C(=O)N5CCN(c6ncnc7c6[C@H](C)C[C@H]7O)CC5)c5ccc(Cl)cc5)CC4)CC3)c(NC(=O)CNCc3ccncn3)c2)c1` [Compound I-165]: the IC50 is above 10 µM.
As for `CCc1cccc(-c2cnc(C(=O)N3CCC(OC4CCN(CC(=O)NCCNC[C@@H](C(=O)N5CCN(c6ncnc7c6[C@H](C)C[C@H]7O)CC5)c5ccc(Cl)cc5)CC4)CC3)c(NC(=O)CNCc3ccncn3)c2)c1` [Compound I-167], the IC50 is above 10 µM.
Still for that read-out and setting: with `CCOc1cc(OC)ccc1CNCC(=O)N1CCCC(c2cccc(C(=O)N[C@@H](C(=O)N3CCN(CC4CCN(CC(=O)NCCN(C[C@@H](C(=O)N5CCN(c6nncc7c6[C@H](C)C[C@H]7O)CC5)c5ccc(Cl)cc5)C(C)C)CC4)CC3)C3CCCCC3)c2)C1` (stereo partly shown) [Compound I-171] the figure was 1 to 5 µM; with `CCc1cccc(-c2cnc(C(=O)N3CCC(CN4CCN(CC(=O)NCCNC[C@@H](C(=O)N5CCN(c6ncnc7c6[C@H](C)C[C@H]7O)CC5)c5ccc(Cl)cc5)CC4)CC3)c(NC(=O)CN3CCOCC3)c2)c1` [Compound I-172], 5 to 10 µM; with `CCc1cccc(-c2cnc(C(=O)N3CCN(CC4CCN(CC(=O)NCCNC[C@@H](C(=O)N5CCN(c6ncnc7c6[C@H](C)C[C@H]7O)CC5)c5ccc(Cl)cc5)CC4)CC3)c(NC(=O)CN3CCOCC3)c2)c1` [Compound I-173], 1 to 5 µM.

In the next experiment the test system is KU1919.1. Kind of experiment: Cell Titer Glo (CTG) proliferation assay, KU1919. In kind it is cell-based. The note with it: Homo sapiens, KU-19-19; KU1919.1 cells, 72.0 hrs.; read-out: AVE CTG Proliferation KU1919.1 72.0 hrs. As to the method: as §1
For `CCc1cccc(-c2cnc(C(=O)N3CCC(CN4CCN(CC(=O)NCCNC[C@@H](C(=O)N5CCN(c6ncnc7c6[C@H](C)C[C@H]7O)CC5)c5ccc(Cl)cc5)CC4)CC3)c(NC(=O)CNCc3ccncn3)c2)c1` [Compound I-165], the IC50 was above 10 µM.
Take `CCc1cccc(-c2cnc(C(=O)N3CCC(OC4CCN(CC(=O)NCCNC[C@@H](C(=O)N5CCN(c6ncnc7c6[C@H](C)C[C@H]7O)CC5)c5ccc(Cl)cc5)CC4)CC3)c(NC(=O)CNCc3ccncn3)c2)c1` [Compound I-167]: the IC50 is above 10 µM.
Same read-out and setting: with `CCOc1cc(OC)ccc1CNCC(=O)N1CCCC(c2cccc(C(=O)N[C@@H](C(=O)N3CCN(CC4CCN(CC(=O)NCCN(C[C@@H](C(=O)N5CCN(c6nncc7c6[C@H](C)C[C@H]7O)CC5)c5ccc(Cl)cc5)C(C)C)CC4)CC3)C3CCCCC3)c2)C1` (stereo partly shown) [Compound I-171] the figure was 0.5 to 1 µM; with `CCc1cccc(-c2cnc(C(=O)N3CCC(CN4CCN(CC(=O)NCCNC[C@@H](C(=O)N5CCN(c6ncnc7c6[C@H](C)C[C@H]7O)CC5)c5ccc(Cl)cc5)CC4)CC3)c(NC(=O)CN3CCOCC3)c2)c1` [Compound I-172], 5 to 10 µM.
In the case of `CCc1cccc(-c2cnc(C(=O)N3CCN(CC4CCN(CC(=O)NCCNC[C@@H](C(=O)N5CCN(c6ncnc7c6[C@H](C)C[C@H]7O)CC5)c5ccc(Cl)cc5)CC4)CC3)c(NC(=O)CN3CCOCC3)c2)c1` [Compound I-173], the IC50 is 1 to 5 µM.
Still for that read-out and setting: for `C[C@@H]1C[C@@H](O)c2ncnc(N3CCN(C(=O)[C@@H](CCN4CCC(CN5CCN(C(=O)[C@H](NC(=O)c6cccc(C7CCCN(C(=O)C8CC8)C7)c6)C6CCCCC6)CC5)CC4)c4ccc(Cl)cc4)CC3)c21` (stereo partly shown) [Compound I-266] the value was 1 to 5 µM; for `NC1(C(=O)N[C@@H](CCN2CCN(C(=O)CN3CCC(OC4CCN(C(=O)[C@H](NC(=O)c5cccc(C6CC6)c5F)C5CCCCC5)CC4)CC3)CC2)c2ccc(Cl)cc2)CCN(c2ncnc3[nH]ccc23)CC1` [Compound I-270], 1 to 5 µM.
The same measure, in the same setting: with `C[C@@H]1C[C@@H](O)c2ncnc(N3CCN(C(=O)[C@H](CCN4CCC(CN5CCN(C(=O)[C@H](NC(=O)c6cccc(C7CCCN(C(=O)CNC8CC8)C7)c6)C6CCCCC6)CC5)CC4)c4ccc(Cl)cc4)CC3)c21` (stereo partly shown) [Compound I-272] the figure was 1 to 5 µM; with `C[C@@H]1C[C@@H](O)c2ncnc(N3CCN(C(=O)[C@@H](CCN4CCC(CN5CCN(C(=O)[C@H](NC(=O)c6cccc(C7CCCN(C(=O)CNC8CC8)C7)c6)C6CCCCC6)CC5)CC4)c4ccc(Cl)cc4)CC3)c21` (stereo partly shown) [Compound I-273], 0.5 to 1 µM; with `C[C@@H]1C[C@@H](O)c2ncnc(N3CCN(C(=O)[C@H](CCN4CCC(CN5CCN(C(=O)[C@H](NC(=O)c6cccc(C7CCCN(C(=O)CNCc8ccc(F)cc8F)C7)c6)C6CCCCC6)CC5)CC4)c4ccc(Cl)cc4)CC3)c21` (stereo partly shown) [Compound I-274], 0.5 to 1 µM.
On to `C[C@@H]1C[C@@H](O)c2ncnc(N3CCN(C(=O)[C@@H](CCN4CCC(CN5CCN(C(=O)[C@H](NC(=O)c6cccc(C7CCCN(C(=O)CNCc8ccc(F)cc8F)C7)c6)C6CCCCC6)CC5)CC4)c4ccc(Cl)cc4)CC3)c21` (stereo partly shown) [Compound I-275], for which the IC50 was in the range of 0.5 to 1 µM.
Same read-out and setting: for `C[C@@H]1C[C@@H](O)c2ncnc(N3CCN(C(=O)[C@H](CN4CCC(OC5CCN(C(=O)[C@H](NC(=O)OC(C)(C)C)C6CCCCC6)CC5)CC4)c4ccc(Cl)cc4)CC3)c21` [Compound I-276] the value was 1 to 5 µM; for `CCc1cccc(-c2cc(F)c(C(=O)N3CCC(OC4CCN(CC[C@H](NC(=O)C5(N)CCN(c6ncnc7[nH]ccc67)CC5)c5ccc(Cl)cc5)CC4)CC3)c(F)c2)c1` [Compound I-280], 1 to 5 µM.
Same read-out and setting: with `C=CC(=O)N1CCN(c2ccc(CCC(=O)N3CCC(CN4CCN(CC[C@H](NC(=O)C5(N)CCN(c6ncnc7[nH]ccc67)CC5)c5ccc(Cl)cc5)CC4)CC3)o2)C(=O)C1` [Compound I-284] the figure was 1 to 5 µM.
Still for that read-out and setting: for `C=CC(=O)N1CCN(c2ccc(CCC(=O)N3CCC(OC4CCN(CC[C@H](NC(=O)C5(N)CCN(c6ncnc7[nH]ccc67)CC5)c5ccc(Cl)cc5)CC4)CC3)o2)C(=O)C1` [Compound I-285] the value was above 10 µM; for `C=CC(=O)N1CCN(c2ccc(CCC(=O)N3CCN(CC4CCN(CC[C@H](NC(=O)C5(N)CCN(c6ncnc7[nH]ccc67)CC5)c5ccc(Cl)cc5)CC4)CC3)o2)C(=O)C1` [Compound I-286], 1 to 5 µM; for `C=CC(=O)N1CCN(c2ccc(CCC(=O)NCCOCCNCC[C@H](NC(=O)C3(N)CCN(c4ncnc5[nH]ccc45)CC3)c3ccc(Cl)cc3)o2)C(=O)C1` [Compound I-287], above 10 µM.
Consider `NC1(C(=O)N[C@@H](CCN2CCC(OC3CCN(C(=O)[C@H](NC(=O)c4cccc(C5CCN(C(=O)C6CC6)CC5)c4F)C4CCCCC4)CC3)CC2)c2ccc(Cl)cc2)CCN(c2ncnc3[nH]ccc23)CC1` [Compound I-288], for which the IC50 is 1 to 5 µM.
Regarding `NC1(C(=O)N[C@@H](CCN2CCC(OC3CCN(C(=O)c4cccc(C5CCCN(C(=O)CNCc6ccc(F)cc6F)C5)c4F)CC3)CC2)c2ccc(Cl)cc2)CCN(c2ncnc3[nH]ccc23)CC1` (stereo partly shown) [Compound I-289], the IC50 is 1 to 5 µM.
Same read-out and setting: with `NC1(C(=O)N[C@@H](CCN2CCC(OC3CCN(C(=O)c4cccc(C5CCCN(C(=O)C6CC6)C5)c4F)CC3)CC2)c2ccc(Cl)cc2)CCN(c2ncnc3[nH]ccc23)CC1` (stereo partly shown) [Compound I-290] the figure was 1 to 5 µM; with `C[C@@H]1C[C@@H](O)c2ncnc(N3CCN(C(=O)[C@H](CN4CCC(OC5CCN(C(=O)[C@H](NC(=O)c6cccc(C7CCCN(C(=O)C8(C)CC8)C7)c6F)C6CCCCC6)CC5)CC4)c4ccc(Cl)cc4)CC3)c21` (stereo partly shown) [Compound I-291], 1 to 5 µM; with `C[C@@H]1C[C@@H](O)c2ncnc(N3CCN(C(=O)[C@H](CN4CCC(OC5CCN(C(=O)[C@H](NC(=O)c6cccc(C7CCCN(C(=O)C89CC(C8)C9)C7)c6F)C6CCCCC6)CC5)CC4)c4ccc(Cl)cc4)CC3)c21` (stereo partly shown) [Compound I-292], 1 to 5 µM.
On the same count and under the same terms, with `NC1(C(=O)N[C@@H](CCOCCN2CCC(OC3CCN(C(=O)[C@H](NC(=O)c4cccc(C5CCCN(C(=O)C67CC(C6)C7)C5)c4)C4CCCCC4)CC3)CC2)c2ccc(Cl)cc2)CCN(c2ncnc3[nH]ccc23)CC1` (stereo partly shown) [Compound I-293] the figure was 1 to 5 µM; with `CC1(C(=O)N2CCCC(c3cccc(C(=O)N[C@@H](C(=O)N4CCC(OC5CCN(CCOCC[C@H](NC(=O)C6(N)CCN(c7ncnc8[nH]ccc78)CC6)c6ccc(Cl)cc6)CC5)CC4)C4CCCCC4)c3)C2)CC1` (stereo partly shown) [Compound I-294], 1 to 5 µM.
Same read-out and setting: with `NC1(C(=O)N[C@@H](CCOCCN2CCC(OC3CCN(C(=O)[C@H](NC(=O)c4cccc(C5CCCN(C(=O)CNC6CC6)C5)c4)C4CCCCC4)CC3)CC2)c2ccc(Cl)cc2)CCN(c2ncnc3[nH]ccc23)CC1` (stereo partly shown) [Compound I-295] the figure was 1 to 5 µM; with `NC1(C(=O)N[C@@H](CCOCCCCCNC(=O)[C@H](NC(=O)c2cccc(C3CCCN(C(=O)C45CC(C4)C5)C3)c2)C2CCCCC2)c2ccc(Cl)cc2)CCN(c2ncnc3[nH]ccc23)CC1` (stereo partly shown) [Compound I-296], above 10 µM; with `CC1(C(=O)N2CCCC(c3cccc(C(=O)N[C@@H](C(=O)NCCCCCOCC[C@H](NC(=O)C4(N)CCN(c5ncnc6[nH]ccc56)CC4)c4ccc(Cl)cc4)C4CCCCC4)c3)C2)CC1` (stereo partly shown) [Compound I-297], 5 to 10 µM.
As for `NC1(C(=O)N[C@@H](CCOCCCCCNC(=O)[C@H](NC(=O)c2cccc(C3CCCN(C(=O)CNC4CC4)C3)c2)C2CCCCC2)c2ccc(Cl)cc2)CCN(c2ncnc3[nH]ccc23)CC1` (stereo partly shown) [Compound I-298], the IC50 was in the range of 1 to 5 µM.
As to `CC(C)(C)OC(=O)N[C@@H](C(=O)N1CCN(CC23CCC(C(=O)N4CCN(CC[C@H](NC(=O)C5(N)CCN(c6ncnc7[nH]ccc67)CC5)c5ccc(Cl)cc5)CC4)(CC2)CO3)CC1)C1CCCCC1` [Compound I-308], the IC50 fell in the range of 1 to 5 µM.
With `CC(C)(C)OC(=O)N[C@@H](C(=O)NCCCCS(=O)(=O)NCC[C@H](NC(=O)C1(N)CCN(c2ncnc3[nH]ccc23)CC1)c1ccc(Cl)cc1)C1CCCCC1` [Compound I-309], the IC50 lay within 1 to 5 µM.
For `CC(C)(C)OC(=O)N[C@@H](C(=O)N1CCC(OC2CCN(CC[C@H](NC(=O)C3(N)CCN(c4ncnc5[nH]ccc45)CC3)c3ccc(Cl)cc3)CC2)CC1)C1CCCCC1` [Compound I-311], the IC50 was in the range of 0.5 to 1 µM.
Regarding `CC(C)(C)OC(=O)N[C@@H](C(=O)NCC[C@H](NC(=O)C1(N)CCN(c2ncnc3[nH]ccc23)CC1)c1ccc(Cl)cc1)C1CCCCC1` [Compound I-313], the IC50 lay within 1 to 5 µM.
On to `C[C@@H]1C[C@@H](O)c2ncnc(N3CCN(C(=O)[C@H](CNCCNC(=O)CN4CCC(OC5CCN(C(=O)OC(C)(C)C)CC5)CC4)c4ccc(Cl)cc4)CC3)c21` [Compound I-314], for which the IC50 fell in the range of 1 to 5 µM.
Still for that read-out and setting: with `CC(C)(C)OC(=O)N1CCC(OC2CCN(CC[C@H](NC(=O)C3(N)CCN(c4ncnc5[nH]ccc45)CC3)c3ccc(Cl)cc3)CC2)CC1` [Compound I-316] the figure was 1 to 5 µM; with `C[C@@H]1C[C@@H](O)c2ncnc(N3CCN(C(=O)[C@H](CNCCNC(=O)CNC45CCC(CN6CCN(C(=O)[C@H](NC(=O)c7cccc(C8CCCN(C(=O)CNC9CC9)C8)c7)C7CCCCC7)CC6)(CC4)OC5)c4ccc(Cl)cc4)CC3)c21` (stereo partly shown) [Compound I-326], 5 to 10 µM.
